MIC data for two compounds are collected here from ChEMBL document CHEMBL1144598, “Synthesis and characterization of cobalt(II), nickel(II), copper(II) and zinc(II) complexes with Schiff base derived from 4-amino-3-mercapto-6-methyl-5-oxo-1,2,4-triazine” (2007).

Values after ≈ are worked out from the molar mass of the structure shown.

The test system of assay [1] is Salmonella typhi. Nature of the assay: Antibacterial activity against Salmonella typhi MTCC 733 by agar dilution method. The format is functional, Salmonella enterica subsp. enterica serovar Typhi. To be noted: Salmonella enterica. (In general: Agar dilution tests growth on a series of plates holding different concentrations.)
Assay [2] deals with Staphylococcus aureus. Put plainly: Antibacterial activity against Staphylococcus aureus MTCC 3160 by agar dilution method. The format is functional.
Assay [3] relates to Bacillus subtilis. Put plainly: Antibacterial activity against Bacillus subtilis MTCC 121 by agar dilution method. The format is functional.
The subject of assay [4] is Staphylococcus epidermidis. Put plainly: Antibacterial activity against Staphylococcus epidermidis MTCC 2639 by agar dilution method. The format is functional.
In assay [5] the test system is Escherichia coli. Nature of the assay: Antibacterial activity against Escherichia coli MTCC 51 by agar dilution method. The class given is functional.

As a reminder, the MIC is the lowest concentration that inhibits growth of the organism. A higher MIC goes with a need for much substance. Take `N[C@@H](C(=O)N[C@@H]1C(=O)N2C(C(=O)O)=C(Cl)CS[C@H]12)c1ccccc1` [CEFACLOR ANHYDROUS]: the MIC amounted to 8 µg/mL (≈ 21.8 µM) in assay [1]; 16 µg/mL (≈ 43.5 µM) in assay [2]; 8 µg/mL (≈ 21.8 µM) in assay [3]; 32 µg/mL (≈ 87 µM) in assay [4]; 4 µg/mL (≈ 10.9 µM) in assay [5].

Consider `C/C(=N\n1c(S)nnc(C)c1=O)c1ccccn1`, for which the MIC in assay [1] came to 16 µg/mL (≈ 61.2 µM); in assay [2], 16 µg/mL (≈ 61.2 µM); in assay [3], 8 µg/mL (≈ 30.6 µM); in assay [4], 32 µg/mL (≈ 122 µM); in assay [5], 16 µg/mL (≈ 61.2 µM).
